Source: PMC10487708, “Chlorin E6-Curcumin-Mediated Photodynamic Therapy Promotes an Anti-Photoaging Effect in UVB-Irradiated Fibroblasts” (International Journal of Molecular Sciences, 2023)

Key:
[1] = system: collagen synthesis in Hs68 cells; experiment: Sircol collagen assay in UVB-irradiated Hs68 cells; type: cell-based, human; settings: 30–40 nM, UVB 200 mJ/cm^2, LED irradiated
Experimental: The amount of collagen was measured through the Sircol collagen assay kit (Figure 8).
Each scale value is shown as the mean only.
Following this, 1 mL Sirius red dye, an anionic dye that reacts specifically with the basic side chain groups of collagens under the assay conditions, was added to 300 µL of cell culture medium supernatant and incubated with gentle rotation for 30 min at room temperature. After centrifugation, the pellet was washed with ice-cold acid-salt wash reagent released in alkali reagent, and the absorbance at 570 nm was measured using an ELISA reader (Sunrise, Tecan, Männedorf, Switzerland). The amount of collagen was calculated based on a standard curve obtained with the standard bovine type I collagen supplied with the kit.

MMP-2 = experiment: Gelatin zymography of MMP-2 in UVB-exposed Hs68 cells; type: cell-based, human; settings: UVB 200 mJ/cm^2, LED 20 J/cm^2, Hs68
Description: Since MMP-2 is a […] that plays an important role in photoaging, we examined the effect of Ce6-curcumin derivatives and LED treatment on the enzyme activities of UV-induced MMP-2 by gelatin zymography. On gelatin zymography, UVB irradiation led to the activation of MMP-2 in Hs68 cells, and this increase was inhibited by Ce6-curcumin derivatives along with LED treatments. On increasing the dose of the Ce6-curcumin derivatives, the MMP-2 was decreased (Figure 7A–C).
Data are expressed as mean ± SD from at least three independent experiments and were analyzed by one-way ANOVA with Tukey’s post hoc test, * p < 0.01 compared with control. ^# p < 0.05 compared with the UVB and LED-treated groups.
MMP-2 activity in cell culture medium was evaluated by gelatin zymography assay as described. After UVB (200 mJ/cm^2) irradiation, Hs68 cells were cultured for 24 h. Ce6-curcumin derivatives were diluted into a medium containing 1% FBS and cultured for 30 min. After 30 min, the LED was irradiated with 20 J/cm^2, cultured for 3 h, washed with 1× PBS, and 300 μL of FBS-free medium was added and cultured for 44 h. […] The activity of MMPs was measured by quantifying the transparent band by proteolytic activity after staining with Coomassie Brilliant Blue staining solution and further distaining with water, methanol, and acetic acid (50:40:10).

[2] = ORAC (oxygen radical absorbance capacity) assay; type: biochemical; settings: Trolox equivalent
Experimental: The ORAC assay is based on the scavenging of peroxyl radicals generated by 2,2′-azobis(2-methylpropioamidine) dihydrochloride (AAPH), which prevents the degradation of the fluorescein probe. The ORAC values were calculated as the area under the curve (AUC) and expressed as µM of Trolox equivalent (TE).

[3] = Ex vivo fluorescence imaging and biodistribution in ICR mice; settings: 2.5 mg/kg IV, 3 h post-injection
Experimental: To confirm the organ-specific signaling intensities of different Ce6-curcumin derivatives, we measured ex-vivo FLI in different organs of ICR mice after 3 h of intravenous drug administration. The drug interval time of 3 h before light irradiation in PDT for Ce6-curcumin derivatives can be explained by the pharmacokinetics and imaging study of Ce6 provided in Figures S1 and S2. Three hours after IV injection of 2.5 mg/kg of Ce6- hexane-curcumin, Ce6-propane-curcumin, and Ce6-diPEG-curcumin, ex-vivo images were obtained. […] Furthermore, the fluorescence intensity of Ce6-curcumin derivatives was highest in organs with a larger blood supply, including the liver and lungs.
(B) Biodistribution of the three Ce6-curcumin derivatives in the organ lysates after 3 h post-injection. The quantitation of fluorescence signals of Ce6 derivatives has been represented as a bar. Data were represented as mean ± SD from at least three independent experiments and were analyzed by one-way ANOVA with Tukey’s post hoc test: * p < 0.01, compared with vehicle-treated control of the spleen, ^# p < 0.01, compared with vehicle-treated control of the lungs, ^& p < 0.01, compared with vehicle-treated control of the liver.
Biodistribution analysis for Ce6 and Ce6-curcumin derivatives was calculated by measuring tissue fluorescence. […] The fluorescence intensity was normalized to the tissue weight.

BALB/c 3T3 cells = experiment: MTT cytotoxicity of Ce6-curcumin derivative PDT in BALB/c 3T3 cells; type: cell-based, mouse; settings: Mus musculus, BALB/c3T3, light or radiation study; 3 h treatment, 660 nm 20 J/cm^2, MTT after 24 h; read-out: IC50 BALB/c 3T3 cell viability
Experimental: MTT assay was used to evaluate viability after 24 h. IC50 values were calculated using GraphPad Prism 5 software.
Hs68 and BALB/c 3T3 cell viability was measured using a 3-[4,5-dimethylthylthiazol-2-yl]-2,5 diphenyl tetrazolium bromide (MTT) assay. The cells were cultured in 24-well plates at a density of 3 × 10^4 cells per well or BALB/c 3T3 cells at a density of 1 × 10^4 cells per well. […] The Hs68 cells were then exposed to LED light (660 nm; 89 W/m^2; 20 J/cm^2) for 37 min 27 s and incubated for 3 h. […] The cells were washed and treated with MTT, after which the plates were incubated at 37 °C in the dark for 2 h. After the formation of formazan, 100 µL of DMSO was added, and the absorbance was measured at 570 nm using a microtiter plate reader (Thermo-scientific, Skanlt software 5.0, Waltham, MA, USA)

| Compound | collagen synthesis [1] | UVB-induced MMP-2 expression (gelatin zymography) (MMP-2; 100 nM) | ORAC LED Condition (TE, μM) ([2]; LED 20 J/cm^2, 1 μM compound) [µM] | ORAC LED Condition (TE, μM) ([2]; LED 20 J/cm^2, 10 μM compound) [µM] | ORAC Dark Condition (TE, μM) ([2]; 1 μM compound) [µM] | ORAC Dark Condition (TE, μM) ([2]; 10 μM compound) [µM] | ex vivo fluorescence signal in organs [3] | IC50 (BALB/c 3T3 cells) [µM] | UVB-induced MMP-2 expression (gelatin zymography) (MMP-2; 200 nM) |
| --- | --- | --- | --- | --- | --- | --- | --- | --- | --- |
| C=Cc1c(C)c2cc3nc(c(CC(=O)OC)c4[nH]c(cc5nc(cc1[nH]2)C(C)=C5CC)c(C)c4C(=O)NCCCNC(=O)CCCC(=O)Oc1ccc(/C=C/C(=O)CC(=O)/C=C/c2ccc(O)c(OC)c2)cc1OC)C(CCC(=O)OC)C3C (stereo not shown) [Ce6-propane-curcumin] | increase in collagen synthesis in a dose-dependent manner | significant reductions | 2.78 | 30.66 | 20.11 | 26.83 |  |  |  |
| C=Cc1c(C)c2cc3nc(c(CC(=O)OC)c4[nH]c(cc5nc(cc1[nH]2)C(C)=C5CC)c(C)c4C(=O)NCCCOCCOCCOCCCNC(=O)CCCC(=O)Oc1ccc(/C=C/C(=O)CC(=O)/C=C/c2ccc(O)c(OC)c2)cc1OC)C(CCC(=O)OC)C3C (stereo not shown) [Ce6-diPEG-curcumin] |  |  | 0.85 | 27.98 | 20.85 | 30.32 | highest fluorescence | 0.8 | highest attenuation of MMP-2 expression |
